# Experimental data as given in ChEMBL document CHEMBL5614419, “Discovery of novel BCL6-Targeting PROTACs with effective antitumor activities against DLBCL in vitro and in vivo” (Eur J Med Chem, 2024).
# pIC50: −log10 of the molar value. Calls of active or inactive are those of the source. The calls are words filed in the database; no cut-off is given here.
# Key:
# [1] = biological target: T1, Protein cereblon/B-cell lymphoma 6 protein (Homo sapiens, UniProt Q96SW2+P41182); test: In vivo PROTAC activity at CRBN/BCL6 in female nude nu/nu mouse model xenografted with human SU-DHL-4 cells assessed as downregulation of BCL6 protein level in tumor at 40 mg/kg, ip measured after 5 hrs of last dose by Western blot analysis; format: functional, organism-based; conditions: SUD4
# [2] = biological target: T1, Protein cereblon/B-cell lymphoma 6 protein; test: PROTAC activity at CRBN/BCL6 in BCL6-dependent human SU-DHL-4 cells assessed as induction of BCL6 degradation by measuring degradation rate at 1 uM incubated for 48 hrs by Western blot analysis relative to control; format: cell-based
# SUD4 [3] = test: Antiproliferative activity against BCL6-dependent human SU-DHL-4 cells assessed as inhibition of cell growth at 10 uM measured after 6 days by MTT assay relative to control; format: functional; conditions: SU-DHL-4, 144 h, time 6 day
# SU-DHL-6 = test: Antiproliferative activity against BCL6-dependent human SU-DHL-6 cells assessed as inhibition in cell growth measured after 6 days by MTT assay; conditions: SU-DHL-6, 144 h
# [4] = (§1) Cytotoxicity against HEK293T cells assessed as inhibition in cell growth measured after 6 days by MTT assay; format: toxicity, cell-based, HEK-293T; conditions: human, HEK293T cells
# HEK-293T = test: as §1; format: toxicity, cell-based; conditions: human, hek-293t, 144 h; time 6 day
# [5] = Cmax in male Sprague-Dawley rat at 10 mg/kg, ip measured upto 24 hrs by LC-MS/MS analysis; format: ADME, organism-based; conditions: in vivo
# [6] = Cmax in male Sprague-Dawley rat at 20 mg/kg, po measured upto 24 hrs by LC-MS/MS analysis; format: ADME, organism-based; conditions: in vivo
# [7] = Tmax in male Sprague-Dawley rat at 10 mg/kg, ip measured upto 24 hrs by LC-MS/MS analysis; format: ADME, organism-based; conditions: in vivo
# [8] = Tmax in male Sprague-Dawley rat at 20 mg/kg, po measured upto 24 hrs by LC-MS/MS analysis; format: ADME, organism-based; conditions: in vivo
# [9] = Half life in male Sprague-Dawley rat at 20 mg/kg, po measured upto 24 hrs by LC-MS/MS analysis; format: ADME, organism-based; conditions: in vivo
# [10] = AUC (0 to infinity) in male Sprague-Dawley rat at 20 mg/kg, po measured upto 24 hrs by LC-MS/MS analysis; format: ADME, organism-based; conditions: in vivo
# [11] = biological target: T1, Protein cereblon/B-cell lymphoma 6 protein; test: PROTAC activity at CRBN/BCL6 in human SU-DHL-4 cells assessed as induction of BCL6 degradation incubated for 48 hrs by Western blot analysis; format: cell-based
# [12] = biological target: T1, Protein cereblon/B-cell lymphoma 6 protein; test: PROTAC activity at CRBN/BCL6 in human SU-DHL-4 cells assessed as induction of BCL6 degradation by measuring maximal efficacy incubated for 48 hrs by Western blot analysis relative to control; format: cell-based
# [13] = biological target: T1, Protein cereblon/B-cell lymphoma 6 protein; test: PROTAC activity at CRBN/BCL6 in human DOHH-2 cells assessed as induction of BCL6 degradation incubated for 48 hrs by Western blot analysis; format: cell-based
# [14] = biological target: T1, Protein cereblon/B-cell lymphoma 6 protein; test: PROTAC activity at CRBN/BCL6 in human DOHH-2 cells assessed as induction of BCL6 degradation by measuring maximal efficacy incubated for 48 hrs by Western blot analysis relative to control; format: cell-based
# [15] = biological target: T1, Protein cereblon/B-cell lymphoma 6 protein; test: PROTAC activity at CRBN/BCL6 in human SU-DHL-4 cells assessed as reduction in half life BCL6 at 1 uM preincubated with compound for 24 hrs followed by CHX addition and measured after 4 hrs by Western blot analysis; format: cell-based; conditions: time 28.0 hrs
# [16] = biological target: T1, Protein cereblon/B-cell lymphoma 6 protein; test: PROTAC activity at CRBN/BCL6 in human SU-DHL-4 cells assessed as induction of BCL6 degradation at 5 uM preincubated with MG-132 for 2 hrs followed by compound addition and measured after 36 hrs by Western blot analysis; format: cell-based
# SUD4 [17] = test: Effect on BCL6 mRNA level in human SU-DHL-4 cells at 10 uM incubated for 48 hrs by RT-qPCR analysis; format: functional, cell-based
# SUD4 [18] = test: Upregulation of p21 protein level in human SU-DHL-4 cells incubated for 48 hrs by Western blot analysis; format: functional, cell-based; conditions: dose 0.1-10 µM
# SUD4 [19] = test: Upregulation of p21 protein level in human SU-DHL-4 cells at 5 uM by Western blot analysis; format: functional, cell-based; conditions: time 12-72 hrs, TDE = time-dependent effect
# SUD4 [20] = test: Upregulation of p21 protein level in human SU-DHL-4 cells at 5 uM preincubated for 48 hrs followed by compound elution and measured after 72 hrs by Western blot analysis; format: functional, cell-based
# SUD4 [21] = test: Induction of cell cycle arrest in human SU-DHL-4 cells assessed as accumulation of cells at G1 phase incubated for 72 hrs by flow cytometry analysis; format: functional, cell-based; conditions: dose 0.1-10 µM
# SUD4 [22] = test: Induction of cell cycle arrest in human SU-DHL-4 cells assessed as increase in G1 phase cell population at 10 uM measured after 72 hrs by flow cytometry analysis (reference value: 61.4%); format: functional
# SUD4 [23] = test: Induction of cell cycle arrest in human SU-DHL-4 cells assessed as increase in G1 phase cell population at 1 uM measured after 72 hrs by flow cytometry analysis (reference value: 61.4%); format: functional
# [24] = Antitumor activity against human SU-DHL-4 cells xenografted in female nude nu/nu mouse assessed as tumor growth inhibition at 20 mg/kg, ip measured after 21 days by microcaliper based analysis relative to control; format: functional, SUD4; conditions: SU-DHL-4, 504 h, time 21 day, read-out: TGI
# [25] = Antitumor activity against human SU-DHL-4 cells xenografted in female nude nu/nu mouse assessed as tumor growth inhibition at 40 mg/kg, ip measured after 21 days by microcaliper based analysis relative to control; format: functional, SUD4; conditions: SU-DHL-4, 504 h, time 21 day, read-out: TGI
# [26] = biological target: T1, Protein cereblon/B-cell lymphoma 6 protein; test: In vivo PROTAC activity at CRBN/BCL6 in female nude nu/nu mouse model xenografted with human SU-DHL-4 cells assessed as increase in p21 protein level in tumor at 40 mg/kg, ip measured after 5 hrs of last dose by Western blot analysis; format: functional, organism-based; conditions: SUD4
# [27] = biological target: T1, Protein cereblon/B-cell lymphoma 6 protein; test: In vivo PROTAC activity at CRBN/BCL6 in female nude nu/nu mouse model xenografted with human SU-DHL-4 cells assessed as increase in p27 protein level in tumor at 40 mg/kg, ip measured after 5 hrs of last dose by Western blot analysis; format: functional, organism-based; conditions: SUD4
# [28] = biological target: T1, Protein cereblon/B-cell lymphoma 6 protein; test: PROTAC activity at CRBN/BCL6 in human Ibrutinib resistant DOHH2 cells assessed as induction of BCL6 degradation at 0.1 to 10 uM incubated for 48 hrs by Western blot analysis; format: cell-based; conditions: dose 0.1-10 µM
# DOHH-2 [29] = test: Induction of cell cycle arrest in human DOHH-2 cells assessed as G1 phase arrest at 500 nM in presence of Ibrutinib incubated for 72 hrs by flow cytometry; format: functional, cell-based
# SUD4 [30] = test: Synergistic antiproliferative activity against human SU-DHL-4 cells assessed as combination index measured after 6 days in presence of Ibrutinib by MTT assay; format: functional; conditions: time 6 day
# DOHH-2 [31] = test: Synergistic antiproliferative activity against human DOHH-2 cells assessed as combination index measured after 6 days in presence of Ibrutinib by MTT assay; format: functional; conditions: time 6 day
# SUD4 [32] = test: Upregulation of CDKN1B mRNA level in human SU-DHL-4 cells at 10 uM incubated for 48 hrs by RT-qPCR analysis; format: functional, cell-based
# [33] = tested on: Ibrutinib resistant DOHH2 cell; test: Upregulation of p27 protein level in human Ibrutinib resistant DOHH2 cells at 0.1 to 10 uM incubated for 48 hrs by Western blot analysis; format: functional, cell-based; conditions: dose 0.1-10 µM
# T1 sequence (Q96SW2 whole entry, looked up, other chains not shown): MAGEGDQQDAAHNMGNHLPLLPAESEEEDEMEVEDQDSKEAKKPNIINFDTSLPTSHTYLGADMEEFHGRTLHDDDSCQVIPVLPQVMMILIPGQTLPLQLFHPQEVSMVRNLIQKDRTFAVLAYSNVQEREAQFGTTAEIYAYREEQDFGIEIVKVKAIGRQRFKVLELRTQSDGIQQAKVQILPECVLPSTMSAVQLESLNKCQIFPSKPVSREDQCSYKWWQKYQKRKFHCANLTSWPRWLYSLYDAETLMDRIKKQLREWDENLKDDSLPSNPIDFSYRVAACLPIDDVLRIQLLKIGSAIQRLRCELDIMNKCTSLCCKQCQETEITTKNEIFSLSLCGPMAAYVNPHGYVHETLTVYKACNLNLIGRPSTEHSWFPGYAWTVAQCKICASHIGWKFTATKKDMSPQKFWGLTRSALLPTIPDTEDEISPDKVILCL
structure (smiles),measurement,setting,value
COc1cc(Nc2nc(N3CCN(CCOCCNc4cccc5c4C(=O)N(C4CCC(=O)NC4=O)C5=O)CC3)ncc2F)ccc1NC(=O)c1ccc(C2=CCCC2)s1 (configuration not stated),Activity,[1],Active
same,Activity,[2],81.8%
same,inhibition at 10 µM,SUD4 [3],92.6%
same,pIC50,SU-DHL-6,6.35
same,IC50 at 6 days,[4],> 10000 nM
same,Activity,HEK-293T,Dose-Dependent Effect
same,Cmax,[5],3820 ng/mL
same,Cmax,[6],703 ng/mL
same,Tmax,[7],2.67 h
same,Tmax,[8],1 h
same,half-life,[9],1.06 h
same,AUC(0-inf),[10],2330 ng·h/mL
same,Activity,[11],Dose-Dependent Effect
same,DC50,[11],676 nM
same,Emax,[12],93%
same,Activity,[13],Dose-Dependent Effect
same,DC50,[13],558 nM
same,Emax,[14],93.7%
same,Activity,[15],Active
same,Activity,[16],inactive
same,Activity,SUD4 [17],inactive
same,Activity,SUD4 [18],Dose-Dependent Effect
same,Activity,SUD4 [19],Tde
same,Activity,SUD4 [20],Active
same,Activity,SUD4 [21],Dose-Dependent Effect
same,Activity,SUD4 [22],93.3%
same,Activity,SUD4 [23],86.7%
same,inhibition in vivo at 20 mg/kg,[24],47.4%
same,inhibition in vivo at 40 mg/kg,[25],71.8%
same,Activity,[26],Active
same,Activity,[27],Active
same,Activity,[28],Active
same,Activity,DOHH-2 [29],Active
same,CI,SUD4 [30],0.5
same,CI,DOHH-2 [31],0.2
same,Activity,SUD4 [32],Active
same,Activity,[33],Active
